Read-outs that look alike come from different tables or passages of the source.
Key:
Assay type in all cases: biochemical
DYRK1B = target: T1, DYRK1B (Homo sapiens, UniProt Q9Y463); test: Radiometric protein kinase assay (33PanQinase Activity Assay), DYRK1B; settings: read-out: IC50 on DYRK1B (most potent DYRK1B inhibitors)
T1 construct: GST-fusion or His-tag (not specified per kinase); purchased ProQinase GmbH; host or cells: Sf9 insect cells or E. coli (not specified per kinase)
Experimental: (§1) Assays were performed by ProQinase GmbH (Engesserstr. 4, D-79108 Freiburg, Germany. www.proqinase.com). The IC50 profile of all compounds was determined using 12 protein kinases (CDK2/cyclin E, CK1ε, CLK1, 2, 3, 4, DYRK1A, 1B, 2, 3, 4, GSK3β).
(§2) The compounds were provided as […] in 100% DMSO. Prior to testing, the 1 μM stock solutions were subjected to a serial, semi-logarithmic dilution using 100% DMSO as a solvent. […] In the process, 90 μl H2O were added to each well of each compound dilution plate. To minimize potential precipitation, the H2O was added to each plate only a few minutes before the transfer of the compound solutions into the assay plates. The plate was shaken thoroughly, resulting in a compound dilution plate/10% DMSO.
(§3) For the assays (see below), 5 μL solution from each well of the compound dilution plates/10% DMSO were transferred into the assay plates. The final volume of the assay was 50 μL. All compounds were tested at 10 final assay concentrations in the range from 10 μM to 30 nM. The final DMSO concentration in the reaction cocktails was 1% in all cases.
(§4) All protein kinases provided by ProQinase were expressed in Sf9 insect cells or in E. coli as recombinant GST-fusion proteins or His-tagged proteins, either as full-length or enzymatically active fragments. All kinases were produced from human cDNAs and purified by either GSH-affinity chromatography or immobilized metal. Affinity tags were removed from a number of kinases during purification. The purity of the protein kinases was examined by SDS-PAGE/Coomassie staining, the identity was checked by mass spectroscopy.
(§5) A radiometric protein kinase assay (33PanQinase® Activity Assay) was used for measuring the kinase activity of the 12 protein kinases. All kinase assays were performed in 96-well FlashPlates™ from PerkinElmer (Boston, MA, USA) in a 50 μL reaction volume. The reaction cocktail was pipetted in four steps in the following order: • 25 μL of assay buffer (standard buffer/[γ-^33P]-ATP), • 10 μL of ATP solution (in H2O), • 5 μL of test compound (in 10% DMSO), • 10 μL of enzyme/substrate mixture.
(§6) The reaction cocktails were incubated at 30° C. for 60 minutes. The reaction was stopped with 50 μL of 2% (v/v) H3PO4, plates were aspirated and washed two times with 200 μL 0.9% (w/v) NaCl. Incorporation of ^33Pi was determined with a microplate scintillation counter (Microbeta, Wallac). The IC50 values for all compounds were calculated from the dose response curves
(§7) As a parameter for assay quality, the Z′-factor (Zhang et al., J. Biomol. Screen. 2: 67-73, 1999) for the low and high controls of each assay plate (n=8) was used. ProQinase's criterion for repetition of an assay plate is a Z′-factor below 0.4 (Iversen et al., J. Biomol. Screen. 3: 247-252, 2006).

DYRK2 = target: T2, DYRK2 (Homo sapiens, UniProt Q92630); test: Radiometric protein kinase assay (33PanQinase Activity Assay), DYRK2; settings: read-out: IC50 on DYRK2 (most potent DYRK2 inhibitors)
T2 construct: GST-fusion or His-tag (not specified per kinase); purchased ProQinase GmbH; host or cells: Sf9 insect cells or E. coli (not specified per kinase)
T2 sequence (Q92630 1-601): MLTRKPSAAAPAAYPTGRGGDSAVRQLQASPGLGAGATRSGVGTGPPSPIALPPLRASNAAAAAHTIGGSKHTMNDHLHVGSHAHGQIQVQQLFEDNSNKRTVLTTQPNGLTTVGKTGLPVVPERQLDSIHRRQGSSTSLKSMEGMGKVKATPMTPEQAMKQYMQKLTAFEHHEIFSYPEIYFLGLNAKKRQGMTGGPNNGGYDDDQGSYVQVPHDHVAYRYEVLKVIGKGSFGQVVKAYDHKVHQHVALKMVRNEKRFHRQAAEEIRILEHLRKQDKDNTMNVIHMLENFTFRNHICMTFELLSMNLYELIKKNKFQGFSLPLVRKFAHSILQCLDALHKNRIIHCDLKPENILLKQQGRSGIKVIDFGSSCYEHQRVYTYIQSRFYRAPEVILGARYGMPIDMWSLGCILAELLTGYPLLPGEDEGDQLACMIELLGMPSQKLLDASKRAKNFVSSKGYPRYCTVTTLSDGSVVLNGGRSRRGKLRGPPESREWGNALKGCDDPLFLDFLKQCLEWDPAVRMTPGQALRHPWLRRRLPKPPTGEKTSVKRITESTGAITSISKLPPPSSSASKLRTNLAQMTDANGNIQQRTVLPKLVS
Experimental: as §1, §2, §3, §4, §5, §6, §7

CLK1 = target: T3, CLK1 (Homo sapiens, UniProt P49759); test: Radiometric protein kinase assay (33PanQinase Activity Assay), CLK1; settings: read-out: Potency Class CLK1
T3 construct: GST-fusion or His-tag (not specified per kinase); purchased ProQinase GmbH; host or cells: Sf9 insect cells or E. coli (not specified per kinase)
In short: (§8)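 Kinase activity is measured radiometrically as 33P transfer from [γ-33P]-ATP to substrate by recombinant human enzyme over 60 min at 30 °C. Test compounds span 10 μM to 30 nM (10 points, 1% DMSO), and IC50 values come from the resulting dose-response curves.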

CLK4 = target: T4, CLK4 (Homo sapiens, UniProt Q9HAZ1); test: Radiometric protein kinase assay (33PanQinase Activity Assay), CLK4; settings: read-out: IC50 on CLK4 (most potent CLK4 inhibitors)
T4 construct: GST-fusion or His-tag (not specified per kinase); purchased ProQinase GmbH; host or cells: Sf9 insect cells or E. coli (not specified per kinase)
In short: as §8

DYRK3 = target: T5, DYRK3 (Homo sapiens, UniProt O43781); test: Radiometric protein kinase assay (33PanQinase Activity Assay), DYRK3; settings: read-out: IC50 on DYRK3 (most potent DYRK3 inhibitors)
T5 construct: GST-fusion or His-tag (not specified per kinase); purchased ProQinase GmbH; host or cells: Sf9 insect cells or E. coli (not specified per kinase)
T5 sequence (O43781 1-588): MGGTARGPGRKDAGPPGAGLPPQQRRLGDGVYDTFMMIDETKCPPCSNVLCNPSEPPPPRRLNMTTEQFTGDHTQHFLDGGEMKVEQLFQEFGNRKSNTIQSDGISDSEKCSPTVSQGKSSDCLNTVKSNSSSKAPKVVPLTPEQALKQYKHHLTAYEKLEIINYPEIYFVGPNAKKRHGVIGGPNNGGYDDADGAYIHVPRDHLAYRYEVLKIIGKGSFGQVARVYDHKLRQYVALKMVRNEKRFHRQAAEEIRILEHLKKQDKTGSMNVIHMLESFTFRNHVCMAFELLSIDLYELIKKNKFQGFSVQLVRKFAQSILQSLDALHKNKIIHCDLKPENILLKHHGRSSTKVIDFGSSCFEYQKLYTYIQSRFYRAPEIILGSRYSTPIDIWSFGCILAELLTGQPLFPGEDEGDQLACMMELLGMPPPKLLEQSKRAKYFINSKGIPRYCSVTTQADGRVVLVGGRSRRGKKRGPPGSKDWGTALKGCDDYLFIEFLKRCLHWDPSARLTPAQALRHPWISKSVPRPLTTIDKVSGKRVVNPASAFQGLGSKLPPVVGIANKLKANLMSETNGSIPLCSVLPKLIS
Experimental: as §1, §2, §3, §4, §5, §6, §7

DYRK1A = target: T6, DYRK1A (Homo sapiens, UniProt Q13627); test: Radiometric protein kinase assay (33PanQinase Activity Assay), DYRK1A
T6 construct: GST-fusion or His-tag (not specified per kinase); purchased ProQinase GmbH; host or cells: Sf9 insect cells or E. coli (not specified per kinase)
In short: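 Recombinant human kinase, expressed in Sf9 or E. coli, in a radiometric [γ-33P]-ATP assay at 30 °C for 60 min. Compounds tested at 10 concentrations from 10 μM to 30 nM, 1% DMSO final. 33Pi incorporation measured by scintillation counting; IC50 from dose-response curves.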

T3 sequence (P49759 whole entry, the tested form may be a part): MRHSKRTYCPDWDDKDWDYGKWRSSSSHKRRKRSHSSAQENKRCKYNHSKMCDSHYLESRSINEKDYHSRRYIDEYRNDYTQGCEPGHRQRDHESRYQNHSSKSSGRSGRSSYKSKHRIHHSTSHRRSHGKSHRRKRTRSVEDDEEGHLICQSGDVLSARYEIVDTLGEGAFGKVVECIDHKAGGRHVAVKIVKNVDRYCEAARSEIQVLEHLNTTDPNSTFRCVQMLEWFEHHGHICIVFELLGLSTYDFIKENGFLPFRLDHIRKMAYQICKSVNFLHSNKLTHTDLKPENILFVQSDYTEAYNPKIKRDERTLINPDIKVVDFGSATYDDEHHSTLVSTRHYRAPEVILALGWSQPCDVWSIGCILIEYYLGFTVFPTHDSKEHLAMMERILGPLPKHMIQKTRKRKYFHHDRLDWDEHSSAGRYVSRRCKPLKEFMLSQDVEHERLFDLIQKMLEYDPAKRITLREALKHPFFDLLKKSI
T1 sequence (Q9Y463 whole entry, the tested form may be a part): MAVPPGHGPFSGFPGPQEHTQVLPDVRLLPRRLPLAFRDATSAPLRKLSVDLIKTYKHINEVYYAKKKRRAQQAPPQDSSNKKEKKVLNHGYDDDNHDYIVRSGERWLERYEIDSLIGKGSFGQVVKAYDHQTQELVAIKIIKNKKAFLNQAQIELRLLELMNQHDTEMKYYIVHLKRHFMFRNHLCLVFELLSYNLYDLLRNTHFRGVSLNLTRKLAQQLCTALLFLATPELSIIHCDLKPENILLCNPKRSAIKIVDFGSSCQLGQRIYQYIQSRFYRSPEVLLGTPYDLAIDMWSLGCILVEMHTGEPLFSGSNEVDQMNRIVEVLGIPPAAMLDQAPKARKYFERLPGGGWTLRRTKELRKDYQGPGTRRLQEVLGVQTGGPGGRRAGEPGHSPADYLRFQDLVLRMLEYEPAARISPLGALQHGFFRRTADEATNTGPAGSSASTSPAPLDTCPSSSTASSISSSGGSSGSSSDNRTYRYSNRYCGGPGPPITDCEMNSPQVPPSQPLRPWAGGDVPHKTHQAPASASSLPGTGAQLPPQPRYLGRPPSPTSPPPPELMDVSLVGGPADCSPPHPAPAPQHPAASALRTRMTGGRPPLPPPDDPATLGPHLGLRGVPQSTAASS
T4 sequence (Q9HAZ1 whole entry, the tested form may be a part): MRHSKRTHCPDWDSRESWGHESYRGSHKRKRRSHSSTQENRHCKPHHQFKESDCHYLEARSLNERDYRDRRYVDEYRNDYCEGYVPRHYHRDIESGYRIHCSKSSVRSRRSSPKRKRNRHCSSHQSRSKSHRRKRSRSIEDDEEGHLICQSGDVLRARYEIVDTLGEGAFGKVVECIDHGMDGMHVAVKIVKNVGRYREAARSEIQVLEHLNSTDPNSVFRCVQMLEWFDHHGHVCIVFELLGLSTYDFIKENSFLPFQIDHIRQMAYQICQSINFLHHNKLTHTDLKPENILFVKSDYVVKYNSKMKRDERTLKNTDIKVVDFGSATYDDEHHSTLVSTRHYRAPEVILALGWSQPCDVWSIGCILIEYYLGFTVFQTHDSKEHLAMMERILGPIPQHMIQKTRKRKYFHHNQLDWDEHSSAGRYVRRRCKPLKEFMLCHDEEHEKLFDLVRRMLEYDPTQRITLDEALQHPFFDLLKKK

O=C1NC(NC23CC4CC(CC(O)(C4)C2)C3)=N/C1=C\c1ccc2ncccc2c1 [Compound 50, (4Z)-2-[(3-hydroxy-1-adamantyl)amino]-4-(6-quinolylmethylene)-1H-imidazol-5-one]
IC50 (DYRK1B): ≤ 10 nM
IC50 (DYRK2): ≤ 250 nM
IC50 (CLK1; IC50 class A to E): 10 to 25 nM
IC50 (CLK1; class by IC50 on CLK1, from dose-response curves): 10 to 25 nM
IC50 (CLK4): ≤ 10 nM
IC50 (DYRK3): ≤ 250 nM
IC50 (DYRK1A; IC50 class A to E, read-out: Potency Class DYRK1A): ≤ 5 nM
IC50 (DYRK1A; class by IC50 on DYRK1A, from dose-response curves, read-out: Potency Class DYRK1A): < 5 nM
Selectivity Class DYRK1A vs. CLK1 (DYRK1A; ratio of IC50 on CLK1 over IC50 on DYRK1A): II (ratio between 2 and 10 fold)
Selectivity Class DYRK1A vs. DYRK1B (DYRK1A; ratio of IC50 on DYRK1B over IC50 on DYRK1A): II (ratio between 2 and 10 fold)
IC50 (DYRK1A; read-out: IC50 on DYRK1A (most potent DYRK1A inhibitors)): ≤ 10 nM
